Test system: Tacaribe virus (TRVL 11573)
Assay: microbe, parasite or virus in culture
Format: cell-based
Conditions: Mammarenavirus tacaribeense, Vero, read-out: Tacaribe EC50

Row | SMILES | EC50 [nM]
1 | CC(NC(=O)NNS(=O)(=O)c1ccc(-c2ccccc2)cc1)(C(F)(F)F)C(F)(F)F [Example 1] | < 500
2 | CC(C)(C)c1ccc(S(=O)(=O)NNC(=O)NC(C)(C(F)(F)F)C(F)(F)F)cc1 [Example 2] | < 500
3 | CN1CCOc2cc(S(=O)(=O)NNC(=O)NC(C)(C(F)(F)F)C(F)(F)F)ccc21 [Example 3, N-2-(1,1,1,3,3,3-Hexafluoro-2-methylpropyl)-2-[7-(4-methyl-3,4-dihydro-2H-benzo[1,4]oxazinyl)sulfonyl] hydrazine-1-carboxamide] | < 500
4 | CN(C)c1cccc2c(S(=O)(=O)NNC(=O)NC(C)(C(F)(F)F)C(F)(F)F)cccc12 [Example 4, N-2-(1,1,1,3,3,3-Hexafluoro-2-methylpropyl)-2-[5-(1-dimethylamino-naphthyl)sulfonyl]hydrazine-1-carboxamide] | < 500
5 | Cc1cc(C)c(S(=O)(=O)NNC(=O)NC(C)(C(F)(F)F)C(F)(F)F)c(C)c1 [Example 5, N-2-(1,1,1,3,3,3-Hexafluoro-2-methylpropyl)-2-[(2,4,6-trimethylphenyl)sulfonyl)hydrazine-1-carboxamide] | < 500
6 | COc1ccc(Cl)cc1S(=O)(=O)NNC(=O)NC(C)(C(F)(F)F)C(F)(F)F [Example 6, N-2-(1,1,1,3,3,3-Hexafluoro-2-methylpropyl)-2-[(3-chloro-6-methoxyphenyl)sulfonyl]hydrazine-1-carboxamide] | < 500
7 | COc1ccc(OC)c(S(=O)(=O)NNC(=O)NC(C)(C(F)(F)F)C(F)(F)F)c1 [Example 7, N-2-(1,1,1,3,3,3-Hexafluoro-2 methylpropyl)-2-[(3,6-dimethoxyphenyl)sulfonyl] hydrazine-1-carboxamide] | < 500
8 | CC(NC(=O)NNS(=O)(=O)c1ccc(-c2csnn2)cc1)(C(F)(F)F)C(F)(F)F [Example 8, N-2-(1,1,1,3,3,3-Hexafluoro-2-methylpropyl)-2-[(4-(4-[1,2,3]thiadiazolyl)phenyl)sulfonyl] hydrazine-1-carboxamide] | < 500
9 | CC(NC(=O)NNS(=O)(=O)c1cccc(Br)c1)(C(F)(F)F)C(F)(F)F [Example 9, N-2-(1,1,1,3,3,3-Hexafluoro-2-methylpropyl)-2-[(3-bromophenyl)sulfonyl)hydrazine-1-carboxamide] | < 500
10 | CC(NC(=O)NNS(=O)(=O)c1ccc(Br)cc1)(C(F)(F)F)C(F)(F)F [Example 10, N-2-(1,1,1,3,3,3-Hexafluoro-2-methylpropyl)-2-[(4-bromophenyl)sulfonyl]hydrazine-1-carboxamide] | < 500
11 | Cc1ccc(S(=O)(=O)NNC(=O)NC(C)(C(F)(F)F)C(F)(F)F)cc1 [Example 11, N-2-(1,1,1,3,3,3-Hexafluoro-2-methylpropyl)-2-[(4-methylphenyl)sulfonyl]hydrazine-1-carboxamide] | < 500
12 | COc1ccc(S(=O)(=O)NNC(=O)NC(C)(C(F)(F)F)C(F)(F)F)cc1 [Example 12, N-2-(1,1,1,3,3,3-Hexafluoro-2-methylpropyl)-2-[(4-methylphenyl)sulfonyl]hydrazine-1-carboxamide] | < 500
13 | CC(NC(=O)NNS(=O)(=O)c1ccc(OC(F)F)cc1)(C(F)(F)F)C(F)(F)F [Example 13, N-2-(1,1,1,3,3,3-Hexafluoro-2-methylpropyl)-2-[(4-difluoromethoxyphenyl)sulfonyl] hydrazine-1-carboxamide] | < 500
14 | CC(NC(=O)NNS(=O)(=O)c1ccc(Cl)c(F)c1)(C(F)(F)F)C(F)(F)F [Example 14, N-2-(1,1,1,3,3,3-Hexafluoro-2-methylpropyl)-2-[(3-fluoro-4-chloro-phenyl)sulfonyl]hydrazine-1-carboxamide] | 500 to 1000
15 | CC(NC(=O)NNS(=O)(=O)c1ccc(OC(F)(F)F)cc1)(C(F)(F)F)C(F)(F)F [Example 15, N-2-(1,1,1,3,3,3-Hexafluoro-2-methylpropyl)-2-[(4-trifluoromethoxyphenyl)sulfonyl] hydrazine-1-carboxamide] | 500 to 1000
16 | CC(NC(=O)NNS(=O)(=O)c1ccc(F)cc1)(C(F)(F)F)C(F)(F)F [Example 16, N-2-(1,1,1,3,3,3-Hexafluoro-2-methylpropyl)-2-[(4-fluoro-phenyl)sulfonyl]hydrazine-1-carboxamide] | 500 to 1000
17 | COc1cccc(S(=O)(=O)NNC(=O)NC(C)(C(F)(F)F)C(F)(F)F)c1 [Example 17, N-2-(1,1,1,3,3,3-Hexafluoro-2-methylpropyl)-2-[(3-methoxyphenyl)sulfonyl]hydrazine-1-carboxamide] | 500 to 1000
18 | Cc1ccccc1S(=O)(=O)NNC(=O)NC(C)(C(F)(F)F)C(F)(F)F [Example 18, N-2-(1,1,1,3,3,3-Hexafluoro-2-methylpropyl)-2-[(2-methoxyphenyl)sulfonyl]hydrazine-1-carboxamide] | 500 to 1000
19 | CC(NC(=O)NNS(=O)(=O)c1cccc(C(F)(F)F)c1)(C(F)(F)F)C(F)(F)F [Example 19] | 500 to 1000
20 | COc1ccc(S(=O)(=O)NNC(=O)NC(C)(C(F)(F)F)C(F)(F)F)c(OC)c1 [Example 20, N-2-(1,1,1,3,3,3-Hexafluoro-2-methylpropyl)-2-[(2,4-dimethoxyphenyl)sulfonyl] hydrazine-1-carboxamide] | 500 to 1000

Row | SMILES | EC50 [nM]
21 | Cc1cccc(S(=O)(=O)NNC(=O)NC(C)(C(F)(F)F)C(F)(F)F)c1 [Example 22, N-2-(1,1,1,3,3,3-Hexafluoro-2-methylpropyl)-2-[(3-methylphenyl)sulfonyl]hydrazine-1-carboxamide] | 500 to 1000
22 | CC(NC(=O)NNS(=O)(=O)c1ccc(C(F)(F)F)cc1)(C(F)(F)F)C(F)(F)F [Example 23, N-2-(1,1,1,3,3,3-Hexafluoro-2-methylpropyl)-2-[(4-trifluoromethylphenyl)sulfonyl] hydrazine-1-carboxamide] | 500 to 1000
23 | CC(NC(=O)NNS(=O)(=O)c1ccccc1C(F)(F)F)(C(F)(F)F)C(F)(F)F [Example 24, N-2-(1,1,1,3,3,3-Hexafluoro-2-methylpropyl)-2-[(2-trifluoromethylphenyl)sulfonyl] hydrazine-1-carboxamide] | 1000 to 5000
24 | CC(NC(=O)NNS(=O)(=O)c1ccc(S(=O)(=O)N2CCCC2)cc1)(C(F)(F)F)C(F)(F)F [Example 25, N-2-(1,1,1,3,3,3-Hexafluoro-2-methylpropyl)-2-[4-(pyrrolidin-1-sulfonyl)phenylsulfonyl]hydrazine-1-carboxamide] | 1000 to 5000
25 | CC(NC(=O)NNS(=O)(=O)c1ccccc1Cl)(C(F)(F)F)C(F)(F)F [Example 26, N-2-(1,1,1,3,3,3-Hexafluoro-2-methylpropyl)-2-[(2-chlorophenyl)sulfonyl]hydrazine-1-carboxamide] | 1000 to 5000
26 | CC(NC(=O)NNS(=O)(=O)c1ccc(N2CCOCC2)nc1)(C(F)(F)F)C(F)(F)F [Example 27, N-2-(1,1,1,3,3,3-Hexafluoro-2-methylpropyl)-2-(2-(5-morpholin-4-yl)pyridylsulfonyl]hydrazine-1-carboxamide] | 1000 to 5000
27 | CC(NC(=O)NNS(=O)(=O)c1ccccc1OC(F)(F)F)(C(F)(F)F)C(F)(F)F [Example 28, N-2-(1,1,1,3,3,3-Hexafluoro-2-methylpropyl)-2-[(2-trifluoromethoxyphenyl)sulfonyl] hydrazine-1-carboxamide] | 1000 to 5000
28 | CC(NC(=O)NNS(=O)(=O)c1ccc(Cl)cc1Cl)(C(F)(F)F)C(F)(F)F [Example 29, N-2-(1,1,1,3,3,3-Hexafluoro-2-methylpropyl)-2-[(2,4-dichlorophenyl)sulfonyl]hydrazine-1-carboxamide] | 1000 to 5000
29 | CC(NC(=O)NNS(=O)(=O)c1ccccc1)(C(F)(F)F)C(F)(F)F [Example 30, N-2-(1,1,1,3,3,3-Hexafluoro-2-methylpropyl)-2-[phenylsulfonyl]hydrazine-1-carboxamide] | 1000 to 5000
30 | CC(NC(=O)NNS(=O)(=O)c1cccc(OC(F)F)c1)(C(F)(F)F)C(F)(F)F [Example 31, N-2-(1,1,1,3,3,3-Hexafluoro-2-methylpropyl)-2-[(3-difluoromethoxyphenyl)sulfonyl] hydrazine-1-carboxamide] | 1000 to 5000
31 | CC(NC(=O)NNS(=O)(=O)c1cccc(C#N)c1)(C(F)(F)F)C(F)(F)F [Example 32, N-2-(1,1,1,3,3,3-Hexafluoro-2-methylpropyl)-2-[(3-cyanophenyl)sulfonyl]hydrazine-1-carboxamide] | 1000 to 5000
32 | CC(NC(=O)NNS(=O)(=O)c1ccc(C#N)cc1)(C(F)(F)F)C(F)(F)F [Example 33, N-2-(1,1,1,3,3,3-Hexafluoro-2-methylpropyl)-2-[(4-cyanophenyl)sulfonyl]hydrazine-1-carboxamide] | 1000 to 5000
33 | CC(NC(=O)NNS(=O)(=O)c1cccc2c1OCCO2)(C(F)(F)F)C(F)(F)F [Example 34, N-2-(1,1,1,3,3,3-Hexafluoro-2-methylpropyl)-2-[5-(2,3-dihydrobenzo[1,4]dioxinyl)sulfonyl]hydrazine-1-carboxamide] | 1000 to 5000
34 | Cc1ccc(S(=O)(=O)NN(C)C(=O)NC(C)(C(F)(F)F)C(F)(F)F)cc1 [Example 35] | 1000 to 5000
35 | CC(NC(=O)NNS(=O)(=O)c1cccc(F)c1)(C(F)(F)F)C(F)(F)F [Example 36, N-2-(1,1,1,3,3,3-Hexafluoro-2-methylpropyl)-2-[(3-fluorophenyl)sulfonyl]hydrazine-1-carboxamide] | 1000 to 5000
36 | CC(NC(=O)NNS(=O)(=O)c1ccc(F)c(F)c1)(C(F)(F)F)C(F)(F)F [Example 37, N-2-(1,1,1,3,3,3-Hexafluoro-2-methylpropyl)-2-[(3,4-difluorophenyl)sulfonyl]hydrazine-1-carboxamide] | 1000 to 5000
37 | Cc1nc(C)c(S(=O)(=O)NNC(=O)NC(C)(C(F)(F)F)C(F)(F)F)s1 [Example 38, N-2-(1,1,1,3,3,3-Hexafluoro-2-methylpropyl)-2-[(2,4-dimethylthiazol-5-yl)sulfonyl]hydrazine-1-carboxamide] | 1000 to 5000
38 | CC(NC(=O)NNS(=O)(=O)c1c(F)cccc1F)(C(F)(F)F)C(F)(F)F [Example 40, N-2-(1,1,1,3,3,3-Hexafluoro-2-methylpropyl)-2-[(2,6-difluorophenyl)sulfonyl]hydrazine-1-carboxamide] | 1000 to 5000
39 | CC(NC(=O)NNS(=O)(=O)c1ccccc1F)(C(F)(F)F)C(F)(F)F [Example 41, N-2-(1,1,1,3,3,3-Hexafluoro-2-methylpropyl)-2-[(2-fluorophenyl)sulfonyl]hydrazine-1-carboxamide] | 1000 to 5000

From patent US8658697B2 (priority 2004, dated 2014)
